From patent US11464779B2, “Pharmaceutical formulation of palbociclib and a preparation method thereof” (Shenzhen Pharmacin Co., Ltd., priority 2016, dated 2022)

Experiments:
[1] = dynamic solubility test in buffer at pH 6.0 with stirring; format: physicochemical; conditions: phosphate buffer pH 6.0, stirring for 60 minutes
Protocol: 62.5 mg of the solid dispersion prepared in Example 3 (containing 12.5 mg of the API of palbociclib in proportion) and 12.5 mg of the API of palbociclib were weighed separately, placed into two 100 ml beakers, respectively, and marked with T1 and T2. 90 ml of phosphate buffer (pH 6.0) was added to the two beakers respectively and a magnetic stir bar was placed therein. The two beakers were placed on a magnetic stirrer separately. 1 ml of the solution was removed separately from each of the beakers at the time points of 5, 10, 20, 40, and 60 minutes and filtered through a 0.45 μm micro PES polyethersulfone filter membrane. The filtrate was analyzed by high performance liquid chromatography, the content of the API of palbociclib was determined and the dissolution percentage was calculated.

[2] = co-dissolution of API of palbociclib and acidic auxiliary material in a solvent; format: physicochemical; conditions: co-dissolved with pharmaceutically acceptable acidic auxiliary material; solvent e.g. water
Text: The present invention also provides a method for the preparation of a solid dispersion, comprising: mixing palbociclib with an acidic auxiliary material; adding a solvent (including but not limited to water, ethanol, acetone and a mixture thereof, preferably water or a mixture thereof with other solvents, e.g. the mixture of water and ethanol, the mixture of water and acetone, etc.) for dissolving or dispersing; adding a hydrophilic high-molecular material, dissolving or dispersing evenly; and removing the solvent by heating, for example, evaporating the solvent to dry by vacuum drying or heating drying or freeze drying or other drying ways, in order to achieve the purpose of dispersing the drug in the high-molecular solid carrier to a high degree, so as to prepare the solid dispersion.
In the preparation of the solid dispersion of the present invention, the concentration of the API of palbociclib in the solvent (e.g., water) can be up to 50 mg/ml or more, thereby improving the preparation efficiency of the solid dispersion.

[3] = according to WO2005/005426; cited from earlier work

## CC(=O)c1c(C)c2cnc(Nc3ccc(N4CCNCC4)cn3)nc2n(C2CCCC2)c1=O [API of palbociclib, palbociclib]
[1]
  dynamic solubility (dissolution percentage): 58%
[2]
  concentration of the API of palbociclib in the solvent: ≥ 50000 µg/mL
[3]
  solubility in water: poor
